Data: PMC9116130 (Biochemical pharmacology, 2020)
Where a SMILES comes first, the peptide text is derived from it. Bridges are numbered along the chain shown (N, C = ends).

Columns and labels:
[1] = molecular target: rNaV1.7 (Rattus norvegicus, UniProt O08562); experiment: Two-electrode voltage-clamp on Xenopus laevis oocytes expressing NaV1.7
[2] = molecular target: mNaV1.6 (Mus musculus, UniProt Q9WTU3); experiment: Two-electrode voltage-clamp on Xenopus laevis oocytes expressing NaV1.6; conditions: for inhibition at 100 µM: read-out: Maximum % inhibition NaV1.6, peptide at 100 μM
[3] = molecular target: rNaV1.4 (Rattus norvegicus, UniProt P15390); experiment: Two-electrode voltage-clamp on Xenopus laevis oocytes expressing NaV1.4; conditions: for inhibition at 100 µM: read-out: Maximum % inhibition NaV1.4, peptide at 100 μM; for Maximum % inhibition NaV1.4: peptide at 100 μM, 100 µM
[4] = molecular target: rNaV1.3 (Rattus norvegicus, UniProt P08104); experiment: Two-electrode voltage-clamp on Xenopus laevis oocytes expressing NaV1.3
[5] = molecular target: hNaV1.5 (Homo sapiens, UniProt Q14524); experiment: Two-electrode voltage-clamp on Xenopus laevis oocytes expressing NaV1.5; conditions: for inhibition at 100 µM: read-out: Maximum % inhibition NaV1.5
[6] = molecular target: rNaV1.8 (Rattus norvegicus, UniProt Q62968); experiment: Two-electrode voltage-clamp on Xenopus laevis oocytes expressing NaV1.8; conditions: for inhibition at 100 µM: read-out: Maximum % inhibition NaV1.8
[7] = molecular target: hNaV1.1 (Homo sapiens, UniProt P35498); experiment: Two-electrode voltage-clamp on Xenopus laevis oocytes expressing NaV1.1
[8] = molecular target: rNaV1.2 (Rattus norvegicus, UniProt P04775); experiment: Two-electrode voltage-clamp on Xenopus laevis oocytes expressing NaV1.2; conditions: for inhibition at 100 µM: read-out: Maximum % inhibition NaV1.2, peptide at 100 μM

hNaV1.5, sequence (Q14524 whole entry): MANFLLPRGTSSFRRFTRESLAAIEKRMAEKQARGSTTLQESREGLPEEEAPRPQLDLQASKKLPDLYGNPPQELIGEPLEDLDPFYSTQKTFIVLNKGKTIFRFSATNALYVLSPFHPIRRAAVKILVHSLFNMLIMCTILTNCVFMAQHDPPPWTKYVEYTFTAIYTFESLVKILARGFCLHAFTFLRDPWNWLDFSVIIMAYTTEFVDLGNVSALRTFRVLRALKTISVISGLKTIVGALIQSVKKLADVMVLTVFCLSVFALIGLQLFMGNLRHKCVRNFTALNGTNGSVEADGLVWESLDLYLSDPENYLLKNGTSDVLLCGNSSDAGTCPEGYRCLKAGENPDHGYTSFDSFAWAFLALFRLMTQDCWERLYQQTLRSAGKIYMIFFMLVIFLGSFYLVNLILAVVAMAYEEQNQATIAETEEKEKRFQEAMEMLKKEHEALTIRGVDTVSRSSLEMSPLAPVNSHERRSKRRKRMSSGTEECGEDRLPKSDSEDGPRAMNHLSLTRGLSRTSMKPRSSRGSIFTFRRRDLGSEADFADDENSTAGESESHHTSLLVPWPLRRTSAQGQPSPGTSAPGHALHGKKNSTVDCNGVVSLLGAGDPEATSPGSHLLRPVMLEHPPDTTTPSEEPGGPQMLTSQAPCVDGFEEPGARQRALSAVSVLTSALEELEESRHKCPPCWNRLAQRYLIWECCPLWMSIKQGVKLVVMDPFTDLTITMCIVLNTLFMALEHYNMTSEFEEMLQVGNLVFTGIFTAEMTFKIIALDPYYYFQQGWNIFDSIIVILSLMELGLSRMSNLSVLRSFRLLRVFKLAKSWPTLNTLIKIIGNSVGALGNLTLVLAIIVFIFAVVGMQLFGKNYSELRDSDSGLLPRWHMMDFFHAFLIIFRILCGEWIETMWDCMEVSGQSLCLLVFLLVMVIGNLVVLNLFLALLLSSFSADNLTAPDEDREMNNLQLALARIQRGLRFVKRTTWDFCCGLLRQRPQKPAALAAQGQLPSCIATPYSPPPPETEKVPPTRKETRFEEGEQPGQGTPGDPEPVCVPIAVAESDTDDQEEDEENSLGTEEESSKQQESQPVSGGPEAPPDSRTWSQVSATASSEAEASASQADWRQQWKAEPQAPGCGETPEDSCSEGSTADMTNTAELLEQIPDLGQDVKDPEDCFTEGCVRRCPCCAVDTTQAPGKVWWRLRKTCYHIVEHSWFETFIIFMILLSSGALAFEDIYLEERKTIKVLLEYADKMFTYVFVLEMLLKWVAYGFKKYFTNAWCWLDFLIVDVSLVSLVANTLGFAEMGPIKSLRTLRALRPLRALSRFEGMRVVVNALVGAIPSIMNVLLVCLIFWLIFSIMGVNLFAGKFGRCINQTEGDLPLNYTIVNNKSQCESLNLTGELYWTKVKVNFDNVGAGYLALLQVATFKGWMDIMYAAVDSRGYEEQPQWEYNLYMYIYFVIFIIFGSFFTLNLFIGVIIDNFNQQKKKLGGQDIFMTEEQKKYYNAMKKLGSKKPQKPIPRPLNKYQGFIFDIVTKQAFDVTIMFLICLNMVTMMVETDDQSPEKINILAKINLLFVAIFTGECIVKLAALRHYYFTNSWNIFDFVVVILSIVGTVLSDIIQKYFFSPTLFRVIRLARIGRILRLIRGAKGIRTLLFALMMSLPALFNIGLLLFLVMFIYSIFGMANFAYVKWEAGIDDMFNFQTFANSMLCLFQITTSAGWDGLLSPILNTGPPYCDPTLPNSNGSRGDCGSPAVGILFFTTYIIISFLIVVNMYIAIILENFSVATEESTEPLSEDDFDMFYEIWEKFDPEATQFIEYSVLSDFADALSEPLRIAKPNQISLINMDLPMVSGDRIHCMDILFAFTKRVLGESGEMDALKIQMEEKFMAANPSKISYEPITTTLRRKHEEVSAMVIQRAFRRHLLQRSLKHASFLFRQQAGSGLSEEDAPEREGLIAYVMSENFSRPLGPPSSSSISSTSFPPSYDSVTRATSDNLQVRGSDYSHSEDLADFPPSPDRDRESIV
mNaV1.6, sequence (Q9WTU3 whole entry): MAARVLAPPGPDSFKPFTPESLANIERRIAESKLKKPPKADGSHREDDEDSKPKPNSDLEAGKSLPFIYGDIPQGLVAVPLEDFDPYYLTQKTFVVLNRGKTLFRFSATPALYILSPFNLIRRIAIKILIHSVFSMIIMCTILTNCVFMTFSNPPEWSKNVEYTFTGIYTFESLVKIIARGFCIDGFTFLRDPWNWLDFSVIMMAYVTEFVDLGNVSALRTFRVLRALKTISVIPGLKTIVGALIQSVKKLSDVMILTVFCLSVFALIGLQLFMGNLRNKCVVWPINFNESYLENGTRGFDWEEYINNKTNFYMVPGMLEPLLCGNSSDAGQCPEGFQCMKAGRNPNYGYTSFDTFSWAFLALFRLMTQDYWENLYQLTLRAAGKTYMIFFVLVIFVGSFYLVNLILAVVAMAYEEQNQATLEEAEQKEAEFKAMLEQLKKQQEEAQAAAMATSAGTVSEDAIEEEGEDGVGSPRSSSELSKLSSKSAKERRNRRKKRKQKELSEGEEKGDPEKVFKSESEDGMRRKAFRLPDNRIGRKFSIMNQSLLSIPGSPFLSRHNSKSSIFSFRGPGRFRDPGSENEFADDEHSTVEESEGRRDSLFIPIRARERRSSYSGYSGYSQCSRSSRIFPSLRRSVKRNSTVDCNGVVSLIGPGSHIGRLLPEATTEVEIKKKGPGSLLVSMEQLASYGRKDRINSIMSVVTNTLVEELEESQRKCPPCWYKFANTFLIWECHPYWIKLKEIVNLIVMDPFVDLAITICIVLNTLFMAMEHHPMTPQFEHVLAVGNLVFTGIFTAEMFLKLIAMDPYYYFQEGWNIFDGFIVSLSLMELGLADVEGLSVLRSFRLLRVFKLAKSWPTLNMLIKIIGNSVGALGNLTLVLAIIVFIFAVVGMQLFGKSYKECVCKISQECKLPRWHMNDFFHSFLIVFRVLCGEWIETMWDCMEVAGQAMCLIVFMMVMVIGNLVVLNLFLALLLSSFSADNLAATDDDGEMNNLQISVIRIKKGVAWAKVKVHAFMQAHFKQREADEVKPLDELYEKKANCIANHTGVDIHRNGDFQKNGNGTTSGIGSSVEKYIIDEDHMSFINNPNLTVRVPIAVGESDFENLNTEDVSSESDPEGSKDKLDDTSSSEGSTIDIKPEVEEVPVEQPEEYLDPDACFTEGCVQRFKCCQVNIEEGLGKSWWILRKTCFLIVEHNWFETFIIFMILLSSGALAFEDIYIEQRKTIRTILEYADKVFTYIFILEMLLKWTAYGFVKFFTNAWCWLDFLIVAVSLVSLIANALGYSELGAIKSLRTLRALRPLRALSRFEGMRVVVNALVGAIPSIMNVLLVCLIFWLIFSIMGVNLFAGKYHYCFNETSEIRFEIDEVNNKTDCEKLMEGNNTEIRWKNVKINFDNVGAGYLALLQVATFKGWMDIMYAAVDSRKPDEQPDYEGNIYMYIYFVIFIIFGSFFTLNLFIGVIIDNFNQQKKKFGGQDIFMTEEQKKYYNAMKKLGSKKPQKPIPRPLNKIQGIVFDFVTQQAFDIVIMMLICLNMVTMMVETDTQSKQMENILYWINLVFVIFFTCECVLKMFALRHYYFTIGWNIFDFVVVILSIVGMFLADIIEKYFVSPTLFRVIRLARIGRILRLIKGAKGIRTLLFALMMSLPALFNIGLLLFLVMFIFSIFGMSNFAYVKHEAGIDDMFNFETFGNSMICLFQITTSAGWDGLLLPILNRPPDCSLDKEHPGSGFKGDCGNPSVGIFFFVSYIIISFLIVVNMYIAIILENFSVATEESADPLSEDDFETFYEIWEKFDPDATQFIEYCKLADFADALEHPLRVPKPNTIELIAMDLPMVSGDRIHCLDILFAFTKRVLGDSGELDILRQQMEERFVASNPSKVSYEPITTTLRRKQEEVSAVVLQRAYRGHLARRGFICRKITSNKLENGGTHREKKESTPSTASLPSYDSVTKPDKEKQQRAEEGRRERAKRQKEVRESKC

Compound	IC50 [1] [µM]	IC50 [2] [µM]	inhibition at 100 µM [2] [%]	IC50 [3] [µM]	inhibition at 100 µM [3] [%]	IC50 [4] [µM]	IC50 [5] [µM]	inhibition at 100 µM [5] [%]	IC50 [6] [µM]	inhibition at 100 µM [6] [%]	IC50 [7] [µM]	IC50 [8] [µM]	inhibition at 100 µM [8] [%]	Maximum % inhibition NaV1.2 ([8]; peptide at 100 μM, 100 µM) [%]	Maximum % inhibition NaV1.6 ([2]; peptide at 100 μM, 100 µM) [%]	Maximum % inhibition NaV1.4 [3] [%]
C[C@@H]1NC(=O)[C@H](Cc2c[nH]c3ccccc23)NC(=O)[C@H](CCCNC(=N)N)NC(=O)[C@H](CCCNC(=N)N)NC(=O)[C@@H](N)CSSC[C@@H](C(N)=O)NC(=O)[C@H](CCCNC(=N)N)NC(=O)[C@H](CC(N)=O)NC(=O)[C@H](Cc2c[nH]c3ccccc23)NC(=O)[C@H](CCCNC(=N)N)NC1=O [PnCS1, CRRWARWNRC ^*] (H-CRRWARWNRC-NH2; disulfide 1-10)	0.9 ± 0.2	0.7 ± 0.3	96	0.6 ± 0.3	94	1.1 ± 0.4	2.8 ± 0.5	94	> 100	0	0.8 ± 0.3	1 ± 0.3	97	–	–	–
C[C@@H]1NC(=O)[C@H](Cc2c[nH]c3ccccc23)NC(=O)[C@H](CCCCN)NC(=O)[C@H](CCCNC(=N)N)NC(=O)[C@@H](N)CSSC[C@@H](C(N)=O)NC(=O)[C@H](CCCNC(=N)N)NC(=O)[C@H](CC(N)=O)NC(=O)[C@H](Cc2c[nH]c3ccccc23)NC(=O)[C@H](CCCNC(=N)N)NC1=O [PnCS1[R3K], CRKWARWNRC ^*] (H-CRKWARWNRC-NH2; disulfide 1-10)	–	0.8 ± 0.3	86	0.6 ± 0.3	92	–	2.7 ± 0.6	94	> 100	0	–	0.8 ± 0.3	> 95	96	–	–
C[C@@H]1NC(=O)[C@H](C)NC(=O)[C@H](Cc2c[nH]c3ccccc23)NC(=O)[C@H](CCCNC(=N)N)NC(=O)[C@H](CCCNC(=N)N)NC(=O)[C@@H](N)CSSC[C@@H](C(N)=O)NC(=O)[C@H](CCCNC(=N)N)NC(=O)[C@H](CC(N)=O)NC(=O)[C@H](Cc2c[nH]c3ccccc23)NC1=O [PnCS1[R6A], CRRWAAWNRC ^*] (H-CRRWAAWNRC-NH2; disulfide 1-10)	–	0.9 ± 0.2	> 95	0.5 ± 0.2	> 95	–	7.6 ± 2.2	78	> 100	0	–	9.2 ± 1.1	73	–	96	90
C[C@@H]1NC(=O)[C@H](Cc2c[nH]c3ccccc23)NC(=O)[C@H](CCCNC(=N)N)NC(=O)[C@H](CCCNC(=N)N)NC(=O)[C@@H](N)CSSC[C@@H](C(N)=O)NC(=O)[C@H](CCCNC(=N)N)NC(=O)[C@H](CC(N)=O)NC(=O)[C@H](Cc2c[nH]c3ccccc23)NC(=O)[C@H](CCCCN)NC1=O [PnCS1[R6K], CRRWAKWNRC ^*] (H-CRRWAKWNRC-NH2; disulfide 1-10)	–	0.9 ± 0.3	88	0.6 ± 0.4	94	–	3.3 ± 1.5	89	> 100	0	–	8.7 ± 2.4	67	–	–	–
C[C@@H]1NC(=O)[C@H](CC(N)=O)NC(=O)[C@H](Cc2c[nH]c3ccccc23)NC(=O)[C@H](CCCNC(=N)N)NC(=O)[C@H](C)NC(=O)[C@H](Cc2c[nH]c3ccccc23)NC(=O)[C@H](CCCNC(=N)N)NC(=O)[C@H](CCCNC(=N)N)NC(=O)[C@@H](N)CSSC[C@@H](C(N)=O)NC1=O [PnCS1[R9A], CRRWARWNAC ^*] (H-CRRWARWNAC-NH2; disulfide 1-10)	–	0.9 ± 0.4	79	1.1 ± 0.3	86	–	9.2 ± 4.6	72	> 100	0	–	6.7 ± 1.2	80	–	–	–
C[C@@H]1NC(=O)[C@H](Cc2c[nH]c3ccccc23)NC(=O)[C@H](CCCNC(=N)N)NC(=O)[C@H](CCCNC(=N)N)NC(=O)[C@@H](N)CSSC[C@@H](C(N)=O)NC(=O)[C@H](CCC(=O)O)NC(=O)[C@H](CC(N)=O)NC(=O)[C@H](Cc2c[nH]c3ccccc23)NC(=O)[C@H](CCCNC(=N)N)NC1=O [PnCS1[R9E], CRRWARWNEC ^*] (H-CRRWARWNEC-NH2; disulfide 1-10)	–	> 100	11	> 100	0	–	> 100	40	> 100	0	–	> 100	49	–	–	–
C[C@@H]1NC(=O)[C@H](Cc2c[nH]c3ccccc23)NC(=O)[C@H](CCCNC(=N)N)NC(=O)[C@H](CCCNC(=N)N)NC(=O)[C@@H](N)CSSC[C@@H](C(N)=O)NC(=O)[C@H](CCCCN)NC(=O)[C@H](CC(N)=O)NC(=O)[C@H](Cc2c[nH]c3ccccc23)NC(=O)[C@H](CCCNC(=N)N)NC1=O [PnCS1[R9K], CRRWARWNKC ^*] (H-CRRWARWNKC-NH2; disulfide 1-10)	–	6.7 ± 0.8	72	6.1 ± 2.1	66	–	9.2 ± 0.6	67	> 100	0	–	10.2 ± 4.3	62	–	–	–
C[C@@H]1NC(=O)[C@H](C)NC(=O)[C@H](CCCNC(=N)N)NC(=O)[C@H](CCCNC(=N)N)NC(=O)[C@@H](N)CSSC[C@@H](C(N)=O)NC(=O)[C@H](CCCNC(=N)N)NC(=O)[C@H](CC(N)=O)NC(=O)[C@H](Cc2c[nH]c3ccccc23)NC(=O)[C@H](CCCNC(=N)N)NC1=O [PnCS1[W4A], CRRAARWNRC ^*] (H-CRRAARWNRC-NH2; disulfide 1-10)	–	1.2 ± 0.3	76	0.7 ± 0.3	95	–	3.4 ± 0.2	82	> 100	0	–	0.8 ± 0.3	89	–	–	–
C[C@@H]1NC(=O)[C@H](CCC(=O)O)NC(=O)[C@H](CCCNC(=N)N)NC(=O)[C@H](CCCNC(=N)N)NC(=O)[C@@H](N)CSSC[C@@H](C(N)=O)NC(=O)[C@H](CCCNC(=N)N)NC(=O)[C@H](CC(N)=O)NC(=O)[C@H](Cc2c[nH]c3ccccc23)NC(=O)[C@H](CCCNC(=N)N)NC1=O [PnCS1[W4E], CRREARWNRC ^*] (H-CRREARWNRC-NH2; disulfide 1-10)	–	14.8 ± 3.9	67	12.8 ± 4.1	59	–	> 100	34	> 100	0	–	13.2 ± 5.2	72	–	–	–
C[C@@H]1NC(=O)[C@H](CCCNC(=N)N)NC(=O)[C@H](C)NC(=O)[C@H](Cc2c[nH]c3ccccc23)NC(=O)[C@H](CCCNC(=N)N)NC(=O)[C@H](CCCNC(=N)N)NC(=O)[C@@H](N)CSSC[C@@H](C(N)=O)NC(=O)[C@H](CCCNC(=N)N)NC(=O)[C@H](CC(N)=O)NC1=O [PnCS1[W7A], CRRWARANRC ^*] (H-CRRWARANRC-NH2; disulfide 1-10)	–	11.4 ± 3.6	57	1.1 ± 0.4	> 95	–	6.8 ± 1.3	78	> 100	0	–	0.8 ± 0.3	92	–	–	96
C[C@@H]1NC(=O)[C@H](Cc2c[nH]c3ccccc23)NC(=O)[C@H](CCCNC(=N)N)NC(=O)[C@H](CCCNC(=N)N)NC(=O)[C@@H](N)CSSC[C@@H](C(N)=O)NC(=O)[C@H](CCCNC(=N)N)NC(=O)[C@H](CC(N)=O)NC(=O)[C@H](CCC(=O)O)NC(=O)[C@H](CCCNC(=N)N)NC1=O [PnCS1[W7E], CRRWARENRC ^*] (H-CRRWARENRC-NH2; disulfide 1-10)	–	> 100	27	> 100	42	–	> 100	33	> 100	0	–	> 100	21	–	–	–
C[C@@H]1NC(=O)[C@H](Cc2c[nH]c3ccccc23)NC(=O)[C@H](CCCNC(=N)N)NC(=O)[C@H](CCCNC(=N)N)NC(=O)[C@@H](N)CSSC[C@@H](C(N)=O)NC(=O)[C@H](CCCNC(=N)N)NC(=O)[C@H](CC(N)=O)NC(=O)[C@H](CCCCN)NC(=O)[C@H](CCCNC(=N)N)NC1=O [PnCS1[W7K], CRRWARKNRC ^*] (H-CRRWARKNRC-NH2; disulfide 1-10)	–	8.2 ± 0.6	82	1.7 ± 0.5	87	–	3 ± 0.7	90	> 100	0	–	2.8 ± 0.5	71	–	–	–
